Laboratory results taken from ChEMBL document CHEMBL1156733, “Structure-activity relationship studies on a series of piperazinebenzylalcohols and their ketone and amine analogs as melanocortin-4 receptor ligands” (Bioorg Med Chem Lett, 2008).

Tests used:
Melanocortin receptor 4 [1] = molecular target: T1, Melanocortin receptor 4 (Homo sapiens, UniProt P32245); assay: Antagonist activity at human MC4 receptor expressed in cells assessed as inhibition of alpha-MSH-stimulated cAMP production; type: functional, cell-based
Melanocortin receptor 5 = Melanocortin receptor 5 (Homo sapiens, UniProt P33032); assay: Binding affinity to MC5 receptor
Melanocortin receptor 4 [2] = molecular target: T1, Melanocortin receptor 4
[3] = tested on: Melanocortin receptor 1 (Homo sapiens); assay: Inhibition of human MC1 receptor at 10 uM
Melanocortin receptor 3 = Melanocortin receptor 3 (Homo sapiens, UniProt P41968); assay: Binding affinity to MC3 receptor
Homo sapiens = species on record: Homo sapiens; assay: Selectivity for human MC4 receptor over human MC4 receptor Asp122Ala mutant
Melanocortin receptor 4 [4] = molecular target: Melanocortin receptor 4 (Homo sapiens, UniProt P32245, D122A); assay: Binding affinity to human MC4 receptor Asp122Ala mutant
[5] = Half life in rat at 5 mg/kg, iv; type: ADME, organism-based; set-up: dose 5 mg/kg, route intravenous; settings: in vivo
[6] = Lipophilicity, log D of the compound; type: physicochemical; settings: octanol/water
Brain = assay: Drug level in rat brain rat at 5 mg/kg, iv; type: ADME, organism-based; set-up: dose 5 mg/kg, route intravenous; settings: in vivo
[7] = Volume of distribution in rat at 5 mg/kg, iv; type: ADME, organism-based; set-up: dose 5 mg/kg, route intravenous; settings: in vivo
[8] = Oral bioavailability in rat at 10 mg/kg; type: ADME, organism-based; settings: in vivo
[9] = Ratio of drug level in brain to plasma in rat at 5 mg/kg, iv after 1 hr; type: ADME, organism-based; set-up: dose 5 mg/kg, route intravenous
[10] = Metabolic stability assessed as intrinsic clearance in human liver microsomes; type: ADME, Microsome
[11] = Plasma clearance in rat at 5 mg/kg, iv; type: ADME, organism-based; set-up: dose 5 mg/kg, route intravenous
[12] = AUC in rat at 10 mg/kg, po; type: ADME, organism-based; set-up: dose 10 mg/kg, route oral; settings: plasma

T1 sequence (P32245 whole entry): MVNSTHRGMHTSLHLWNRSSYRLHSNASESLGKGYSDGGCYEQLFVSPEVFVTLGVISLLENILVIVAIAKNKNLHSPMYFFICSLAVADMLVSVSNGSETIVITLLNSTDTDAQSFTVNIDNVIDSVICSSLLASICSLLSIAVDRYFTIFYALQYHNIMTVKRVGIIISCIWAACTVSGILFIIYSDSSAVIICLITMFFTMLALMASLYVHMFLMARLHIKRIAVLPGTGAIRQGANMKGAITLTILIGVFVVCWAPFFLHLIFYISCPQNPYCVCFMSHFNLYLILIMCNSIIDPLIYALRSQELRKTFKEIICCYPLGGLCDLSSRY
Sequence of Melanocortin receptor 3 (P41968 whole entry): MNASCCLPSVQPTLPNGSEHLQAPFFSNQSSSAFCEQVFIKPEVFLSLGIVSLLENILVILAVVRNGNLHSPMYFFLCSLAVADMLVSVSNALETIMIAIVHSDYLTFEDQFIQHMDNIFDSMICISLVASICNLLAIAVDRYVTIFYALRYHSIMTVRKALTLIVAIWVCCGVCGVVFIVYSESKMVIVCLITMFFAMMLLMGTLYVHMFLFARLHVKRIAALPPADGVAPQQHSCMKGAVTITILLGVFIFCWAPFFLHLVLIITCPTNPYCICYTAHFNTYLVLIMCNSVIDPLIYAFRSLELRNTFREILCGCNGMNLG
Sequence of Melanocortin receptor 4 (Homo sapiens, UniProt P32245, D122A) (P32245 whole entry D122A): as the sequence (P32245 whole entry) above, with D122A counted along it
Sequence of Melanocortin receptor 5 (P33032 whole entry): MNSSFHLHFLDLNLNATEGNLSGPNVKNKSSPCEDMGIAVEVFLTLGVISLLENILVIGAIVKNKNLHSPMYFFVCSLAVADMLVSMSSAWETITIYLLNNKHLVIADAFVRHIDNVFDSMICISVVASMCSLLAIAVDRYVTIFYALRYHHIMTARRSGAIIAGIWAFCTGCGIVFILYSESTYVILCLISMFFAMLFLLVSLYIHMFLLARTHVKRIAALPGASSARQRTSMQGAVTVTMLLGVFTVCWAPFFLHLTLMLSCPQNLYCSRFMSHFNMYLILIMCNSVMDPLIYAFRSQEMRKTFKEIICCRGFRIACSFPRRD

IC50 (Melanocortin receptor 4 [1]) [nM] | Ki (Melanocortin receptor 5) [nM] | Ki (Melanocortin receptor 4 [2]) [nM] | inhibition [3] [%] | Ki (Melanocortin receptor 3) [nM] | fold change (FC) (Homo sapiens) | Ki (Melanocortin receptor 4 [4]) [nM] | half-life [5] [h] | logD [6] | Drug uptake (Brain) [ng/g] | Vd [7] [L/kg] | bioavailability [8] [%] | Kp at 1 h [9] | CLint scaled [10] [mL/min/kg] | clearance [11] [mL/min/kg] | AUC [12] [ng·h/mL] | Structure (SMILES)
250 | 1300 | 9.6 | 36 | 3100 |  |  |  |  |  |  |  |  |  |  |  | CC(C)CC(O)c1ccccc1N1CCN(C(=O)[C@@H](Cc2ccc(Cl)cc2Cl)NC(=O)CN(C)C)CC1 (some centres not stated)
420 | 1800 | 8.3 | 34 | 2500 | 60 | 500 |  |  |  |  |  |  |  |  |  | CNCC(=O)N[C@H](Cc1ccc(Cl)cc1Cl)C(=O)N1CCN(c2ccccc2C(O)CC(C)C)CC1 (some centres not stated)
250 | 540 | 3.2 |  | 870 |  |  | 7.1 | 0.15 | 245 | 41.5 | 2.1 | 1.8 | 3.6 | 68 |  | CC(C)CC(N)c1ccccc1N1CCN(C(=O)[C@@H](Cc2ccc(Cl)cc2Cl)NC(=O)CCN)CC1 (some centres not stated)
 |  | 1.7 |  |  | 58 | 99 |  |  |  |  |  |  |  |  |  | CNCC(=O)N[C@H](Cc1ccc(Cl)cc1Cl)C(=O)N1CCN(c2ccccc2C(N)CC(C)C)CC1 (some centres not stated)
 |  | 31 |  |  | 9 | 290 |  |  |  |  |  |  |  |  |  | CNCC(=O)N[C@H](Cc1ccc(Cl)cc1Cl)C(=O)N1CCN(c2ccccc2C(=O)CC(C)C)CC1
260 | 970 | 8.1 |  | 1700 |  |  | 7.6 | 2.2 | 117 | 42.3 | 1.2 | 0.53 | 14.7 | 64.5 | 30 | CC(C)CC(O)c1ccccc1N1CCN(C(=O)[C@@H](Cc2ccc(Cl)cc2Cl)NC(=O)CCN)CC1 (some centres not stated)
650 | 330 | 24 | 42 | 2300 |  |  |  | 2.4 |  |  |  |  | 18.4 |  |  | CC(C)CC(=O)c1ccccc1N1CCN(C(=O)[C@@H](Cc2ccc(Cl)cc2Cl)NC(=O)CCN)CC1
400 | 950 | 9.4 | 34 | 3100 |  |  |  |  |  |  |  |  |  |  |  | CCC(O)(CC)c1ccccc1N1CCN(C(=O)[C@@H](Cc2ccc(Cl)cc2Cl)NC(=O)CN(C)C)CC1
 |  | 54 |  |  |  |  |  |  |  |  |  |  |  |  |  | NCCC(=O)N[C@H](Cc1ccc(Cl)cc1Cl)C(=O)N1CCN(c2ccccc2C(O)Cc2ccccc2)CC1 (some centres not stated)
 |  | 32 |  |  |  |  |  |  |  |  |  |  |  |  |  | NCCC(=O)N[C@H](Cc1ccc(Cl)cc1Cl)C(=O)N1CCN(c2ccccc2C(O)CCc2ccccc2)CC1 (some centres not stated)
